Assays:
α7-nAChRs = target: T1, α7-nAChRs (Homo sapiens, UniProt P36544); test: whole-cell patch-clamp recording of nicotinic responses, α7 nAChR subtype; type: cell-based; details: THB 0.1 mM; nicotine 1.0 μM; FIG. 6B (3)
T1 construct: expressed in transfected cells; host or cells: SH-EP1 human epithelial cell line (stated generally, not specifically for α7)
Description: (§1) In FIGS. 6-9, whole-cell patch-clamp recording techniques in voltage-clamp mode were used to detect changes in current. Conventional whole-cell current recording coupled with techniques for fast application and removal of agonist (9 channel multi-barrel pipette), were applied in this study. Briefly, cells plated on poly-lysine-coated 35-mm culture dishes were placed on the stage of an inverted microscope (Olympus iX7, Lake Success, N.Y.) and continuously superfused with standard external solution (2 ml/min). Glass microelectrodes (3-5 MΩ resistance between pipette and extracellular solutions) were used to form tight seals (>1 GΩ) on the cell surface until suction was applied to convert to conventional whole-cell recording.
(§2) Both pipette and whole current capacitance were minimized and the series resistance was routinely compensated to 80%. The access resistance before series resistance compensation was between 10-20 MΩ. Data acquisition and analyses were done using Pclamp8 (Axon Instruments), and results were plotted using Origin 5.0 (Microcal, North Hampton, Mass.).
(§3) Data usually were fit over the 10-90% period from inward current peak until agonist exposure was terminated (5-10 sec). The experimental data are presented as means±standard errors, and comparisons of different conditions were analyzed for statistical significance using the Student's t-tests. […]

[1] = tested on: D1-type and D2-type DA receptor; details: cited from earlier work
α4β2-nAChR = target: T2, α4β2-nAChR (Homo sapiens, UniProt P17787+P43681); test: whole-cell patch-clamp recording of nicotine-induced currents, α4β2-nAChR expressed in SH-EP1 cells; type: cell-based; details: for effect on α4β2-nAChR mediated currents (peak current response, steady-state component): 0.1 mM of each Magnoliidae compound, FIG. 6A
T2 construct: expressed in transfected cells; host or cells: SH-EP1 human epithelial cell line (nAChR-null)
T2 sequence (P43681 29-627 limits assumed): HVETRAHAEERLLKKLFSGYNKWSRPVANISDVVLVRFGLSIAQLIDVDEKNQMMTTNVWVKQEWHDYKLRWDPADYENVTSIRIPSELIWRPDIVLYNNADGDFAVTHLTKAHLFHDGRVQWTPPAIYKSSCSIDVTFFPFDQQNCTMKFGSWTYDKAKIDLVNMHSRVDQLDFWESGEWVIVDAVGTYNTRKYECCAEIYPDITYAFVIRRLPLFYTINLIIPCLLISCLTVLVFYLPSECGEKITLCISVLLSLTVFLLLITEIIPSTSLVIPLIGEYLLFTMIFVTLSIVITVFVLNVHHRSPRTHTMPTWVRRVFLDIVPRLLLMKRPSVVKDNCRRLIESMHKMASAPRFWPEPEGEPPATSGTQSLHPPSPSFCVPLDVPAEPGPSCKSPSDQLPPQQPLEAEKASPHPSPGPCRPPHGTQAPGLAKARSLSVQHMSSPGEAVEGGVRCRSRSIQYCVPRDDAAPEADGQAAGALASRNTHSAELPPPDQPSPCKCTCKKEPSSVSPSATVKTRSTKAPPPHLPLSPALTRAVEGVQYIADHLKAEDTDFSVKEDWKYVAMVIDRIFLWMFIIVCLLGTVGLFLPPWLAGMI
T2 sequence (P17787 26-502): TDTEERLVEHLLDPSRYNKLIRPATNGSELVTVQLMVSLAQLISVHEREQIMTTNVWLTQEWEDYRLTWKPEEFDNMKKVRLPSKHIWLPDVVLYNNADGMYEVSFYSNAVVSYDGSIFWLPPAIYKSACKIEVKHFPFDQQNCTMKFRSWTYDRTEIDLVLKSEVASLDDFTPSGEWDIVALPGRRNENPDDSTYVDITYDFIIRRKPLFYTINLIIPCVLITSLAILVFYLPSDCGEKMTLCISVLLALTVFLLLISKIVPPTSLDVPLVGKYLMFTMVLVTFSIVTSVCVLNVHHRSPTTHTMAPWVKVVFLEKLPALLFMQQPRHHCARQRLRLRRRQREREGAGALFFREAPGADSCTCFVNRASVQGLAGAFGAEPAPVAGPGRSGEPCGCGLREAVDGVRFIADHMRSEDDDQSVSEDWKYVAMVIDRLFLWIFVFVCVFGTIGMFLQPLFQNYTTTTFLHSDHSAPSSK
Description: as §1, §2
Data usually were fit over the 10-90% period from inward current peak until agonist exposure was terminated (5-10 sec). The experimental data are presented as means±standard errors, and comparisons of different conditions were analyzed for statistical significance using the Student's t-tests. All experiments were performed at room temperature (22±1° C.). A pipette electrode solution comprising TrisPO4dibasic 110 milli-Molar (mM), Trisbase 28 mM, Ethylenediaminetetraacetate (EDTA) 11 mM, Magnesium Chloride (MgCl2) 2 mM, Calcium Chloride (CaCl2) 0.5 mM, and Sodium-Adenosine Triphosphate (Na-ATP) 4 mM, resulting in a pH of 7.3, was used.

[2] = target: T3, (Homo sapiens, UniProt P30926+P43681); test: whole-cell patch-clamp recording of nicotinic responses, α4α4 nAChR subtype; type: cell-based; details: THB 0.1 mM; nicotine 1.0 μM; FIG. 6B (2)
T3 construct: expressed in transfected cells; host or cells: SH-EP1 human epithelial cell line
T3 sequence (P43681 27-627): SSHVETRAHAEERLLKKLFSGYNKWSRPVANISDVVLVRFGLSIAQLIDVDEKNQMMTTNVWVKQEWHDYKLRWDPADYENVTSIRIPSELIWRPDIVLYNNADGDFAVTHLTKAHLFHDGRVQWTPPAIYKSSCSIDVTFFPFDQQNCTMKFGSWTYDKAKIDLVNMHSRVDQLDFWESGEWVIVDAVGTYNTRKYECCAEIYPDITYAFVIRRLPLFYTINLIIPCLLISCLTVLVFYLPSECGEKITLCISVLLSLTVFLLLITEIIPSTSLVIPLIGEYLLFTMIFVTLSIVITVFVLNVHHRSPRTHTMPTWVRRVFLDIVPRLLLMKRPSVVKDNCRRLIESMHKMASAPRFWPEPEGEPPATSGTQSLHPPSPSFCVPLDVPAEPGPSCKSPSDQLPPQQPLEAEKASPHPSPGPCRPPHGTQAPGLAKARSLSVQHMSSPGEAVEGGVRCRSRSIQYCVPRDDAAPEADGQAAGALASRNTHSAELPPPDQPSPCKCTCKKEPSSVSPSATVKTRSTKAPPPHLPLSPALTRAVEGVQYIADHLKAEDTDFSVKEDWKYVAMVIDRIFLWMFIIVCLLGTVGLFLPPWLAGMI
T3 sequence (P30926 22-498): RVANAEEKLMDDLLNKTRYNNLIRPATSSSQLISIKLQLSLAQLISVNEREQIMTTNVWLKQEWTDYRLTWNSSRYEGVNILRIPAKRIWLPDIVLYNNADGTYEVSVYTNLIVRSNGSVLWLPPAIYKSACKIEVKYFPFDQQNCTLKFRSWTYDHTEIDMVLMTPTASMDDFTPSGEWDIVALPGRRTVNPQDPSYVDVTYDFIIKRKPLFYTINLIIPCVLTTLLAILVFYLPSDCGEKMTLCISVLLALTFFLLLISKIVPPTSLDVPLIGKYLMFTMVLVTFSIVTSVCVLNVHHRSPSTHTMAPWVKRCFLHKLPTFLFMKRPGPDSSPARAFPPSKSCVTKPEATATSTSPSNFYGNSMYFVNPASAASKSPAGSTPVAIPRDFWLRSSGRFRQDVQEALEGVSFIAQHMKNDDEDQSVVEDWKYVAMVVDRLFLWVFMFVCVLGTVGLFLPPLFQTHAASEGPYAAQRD
Description: as §1, §2, §3

D2 receptor = target: T4, D2 receptor (Rattus norvegicus, UniProt P61169); details: cited from earlier work
T4 construct: host or cells: normal rats, in vivo
T4 sequence (P61169 whole entry): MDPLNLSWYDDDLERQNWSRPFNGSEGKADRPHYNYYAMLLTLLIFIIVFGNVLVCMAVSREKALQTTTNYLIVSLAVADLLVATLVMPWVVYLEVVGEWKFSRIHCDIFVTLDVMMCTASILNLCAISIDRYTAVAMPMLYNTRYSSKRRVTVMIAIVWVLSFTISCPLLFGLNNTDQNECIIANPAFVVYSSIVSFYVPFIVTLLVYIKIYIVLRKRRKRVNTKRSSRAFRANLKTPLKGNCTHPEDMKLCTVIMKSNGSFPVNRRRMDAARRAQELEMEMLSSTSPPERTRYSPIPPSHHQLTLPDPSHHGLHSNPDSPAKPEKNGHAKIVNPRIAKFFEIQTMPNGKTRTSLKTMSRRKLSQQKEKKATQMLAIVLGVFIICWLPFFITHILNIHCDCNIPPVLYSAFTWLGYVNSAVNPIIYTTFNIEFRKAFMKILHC

D1 receptors = target: T5, D1 receptors (Rattus norvegicus, UniProt P18901); details: rats with unilateral nigral lesion (DA receptor super sensitivity in striatum); cited from earlier work
T5 construct: host or cells: rats with unilateral nigral lesion, in vivo (striatum)
T5 sequence (P18901 whole entry): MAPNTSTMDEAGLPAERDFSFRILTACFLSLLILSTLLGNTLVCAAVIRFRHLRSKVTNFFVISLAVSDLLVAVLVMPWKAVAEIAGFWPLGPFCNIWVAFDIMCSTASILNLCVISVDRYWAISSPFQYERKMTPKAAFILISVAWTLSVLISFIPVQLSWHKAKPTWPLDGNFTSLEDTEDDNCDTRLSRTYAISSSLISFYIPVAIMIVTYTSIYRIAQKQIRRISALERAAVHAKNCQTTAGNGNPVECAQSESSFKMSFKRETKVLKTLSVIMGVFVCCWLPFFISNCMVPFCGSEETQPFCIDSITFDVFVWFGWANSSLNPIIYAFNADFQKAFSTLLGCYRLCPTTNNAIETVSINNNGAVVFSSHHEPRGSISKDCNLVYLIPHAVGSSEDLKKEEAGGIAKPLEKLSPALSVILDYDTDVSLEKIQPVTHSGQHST

T1 sequence (P36544 23-502): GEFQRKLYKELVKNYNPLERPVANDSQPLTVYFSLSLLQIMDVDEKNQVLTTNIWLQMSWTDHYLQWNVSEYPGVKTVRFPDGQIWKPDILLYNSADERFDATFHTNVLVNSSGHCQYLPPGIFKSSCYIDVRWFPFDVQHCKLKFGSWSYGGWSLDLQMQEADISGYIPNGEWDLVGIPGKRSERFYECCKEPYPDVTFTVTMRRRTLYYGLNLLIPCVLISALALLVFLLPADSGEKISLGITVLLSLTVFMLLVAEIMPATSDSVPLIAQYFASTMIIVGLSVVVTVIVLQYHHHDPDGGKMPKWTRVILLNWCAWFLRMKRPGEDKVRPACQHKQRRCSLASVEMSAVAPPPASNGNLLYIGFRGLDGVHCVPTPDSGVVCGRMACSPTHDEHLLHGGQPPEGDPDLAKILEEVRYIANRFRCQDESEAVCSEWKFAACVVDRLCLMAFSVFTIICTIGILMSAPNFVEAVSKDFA

COc1ccc2c(c1OC)CN1CCc3cc4c(cc3C1C2)OCO4 (stereo not drawn) [THB, Tetrahydroberberine]
effect on nicotinic response mediated by α7 subtype (α7-nAChRs): inhibitory effect occurs more predominantly in α7-nAChRs
effect on D1-type and D2-type DA receptor binding [1]: equipotent effect
effect on α4β2-nAChR mediated currents (peak current response, steady-state component) (α4β2-nAChR): inhibition of nAChR function
acute desensitization of nicotine-induced currents (α4β2-nAChR; THB 30 μM, holding potentials −40 mV and −80 mV, FIG. 9A-9B): accelerates acute desensitization
effect on nicotinic response mediated by α4β2 subtype (α4β2-nAChR; THB 0.1 mM, nicotine 1.0 μM, FIG. 6B (1)): inhibition of each nAChR subtype function
effect on peak (Ip) and steady-state (Is) components of nicotinic responses at different THB concentrations (α4β2-nAChR; THB 1.0, 10, 100 μM, nicotine 1.0 μM, FIG. 7A-7C): concentration-dependent inhibition
voltage dependence of suppression of nicotinic response (α4β2-nAChR; depending on holding potential VH): suppressed nicotinic response depending on VH
effect on nicotinic response mediated by α4α4 subtype [2]: inhibition of each nAChR subtype function

COc1cc2c(cc1O)[C@@H]1Cc3ccc(O)c(OC)c3CN1CC2 [l-SPD, l-Stepholidine]
DA receptor characteristics in normal rats (D2 receptor): characteristics of D2 receptor antagonist
DA receptor characteristics in rats with unilateral nigral lesion (D1 receptors): acts on D1 receptors as an agonist
effect on α4β2-nAChR mediated currents (peak current response, steady-state component) (α4β2-nAChR): inhibition of nAChR function

COc1cc2c(cc1OC)[C@@H]1Cc3ccc(OC)c(OC)c3CN1CC2 [l-THP, l-Tetrahydropalmatine]
effect on α4β2-nAChR mediated currents (peak current response, steady-state component) (α4β2-nAChR): inhibition of nAChR function

— patent publication US8507017B2, “Method for decreasing nicotine and other substance use in humans” (Arizona Health Consulting Group, LLC, priority 2003, dated 2013)
